Test results from patent US20030068613A1, “Method for studying regeneration in biological material” (priority 2000, published 2003).

System: organotypic cortical co-cultures
Assay: Correlated activity (regeneration of functional connections) in organotypic cortical co-cultures on micro-electrode arrays
Type: cell-based, Wistar rats
Settings: 50 nM in culture medium from 0 DIV, re-administered with each medium change up to 14 DIV; after 14 days in vitro; n=18; untreated control ca. 60% (n=28)
Method: Organotypic cortical co-cultures (350-425 μm thick from the neocortex) were prepared from three-day-old to seven-day-old Wistar rats of both sexes and were maintained in vitro using the roller tube technique; on this point see Gähwiler, Organotypic Monolayer Cultures of Nervous Tissue, J. NEUROSCIENCE METHODS, 1981, volume 4, pages 329-342. The co-cultures were allowed to grow for up to 35 days either on glass cover plates or on micro-electrode arrays in medium which contained 50% Eagle's basic medium, 25% Hanks-buffered saline solution, 25% horse serum, 33 mM D-glucose and 1 mM L-glutamine. The medium was replaced twice a week, and the co-culture explants were positioned relative to one another with varied orientations and varied distances (0 to 500 μm).
The explants cultured on micro-electrode arrays were recorded at different times for spontaneous electrical activity, at the earliest after 4 DIV (days in vitro) and at the latest 35 DIV in normal culture medium at a temperature of 35° C. Using a multi-channel recording system, the 60 micro-electrodes could be recorded simultaneously, as a result of which it was possible to test correlated activity in the co-cultures. […] The electrodes had impedances of 100 to 300 kΩ (at 1 kHz), a spacing of 500 μm and a diameter of 10 μ. The activity was recorded at 10 to 25 kHz per channel, stored, and analyzed offline in respect of latency. […]

C=CC[C@@H]1/C=C(\C)C[C@H](C)C[C@H](OC)[C@H]2O[C@@](O)(C(=O)C(=O)N3CCCC[C@H]3C(=O)O[C@H](/C(C)=C/[C@@H]3CC[C@@H](O)[C@H](OC)C3)[C@H](C)[C@@H](O)CC1=O)[C@H](C)C[C@@H]2OC [FK506]
correlated activity (share of explants showing correlation): ~90%
